We go through four molecules from PMC9117146, “Immunogenicity and therapeutic targeting of a public neoantigen derived from mutated PIK3CA” (Nature Medicine, 2022).

No end group written: not given here. *: point of attachment. 5FAM = O=C1OC2(c3ccc(O)cc3Oc3cc(O)ccc32)c2ccc(C(=O)*)cc21

One test deals with HLA-A*03:02 (Homo sapiens, UniProt P04439, E176V/L180Q). In words: Differential scanning fluorimetry, peptide/HLA complex. The test is classed as binding. The note with it: DSF, SYPRO Orange, 15 μM protein, HBS-EP pH 7.4, representative melt curve (n=3 technical replicates).
Test [1] concerns the target HLA-A*03:01 (heavy chain with β2-microglobulin) (human). In words: fluorescence polarisation; fluorescence anisotropy; dissociation of fluorescein-labeled peptide from 100 nM purified peptide/HLA-A*03:01 complex with 100 μM unlabeled peptide; 37 °C; 20 mM NaH2PO4, 75 mM NaCl, pH 7.4; t1/2 = 0.693/koff of the slowest rate. (Fluorescence polarisation rises when a labelled molecule tumbles more slowly, as on binding a larger partner.)

The test system of test [2] is peptide-pulsed HLA-A*03:01+ target cells. In words: Intracellular TNFα of TCR-transduced T cells with peptide-pulsed HLA-A*03:01+ targets. The test is classed as cell-based.

Method for HLA-A*03:02: Melting temperatures of WT and Mut PIK3α peptide/HLA-A*03:01 complexes were measured via differential scanning fluorimetry on a StepOnePlus Real-Time PCR System (Applied Biosystems), as previously described[68]. In brief, a 96-well plate was loaded with mixtures of 2 μl of 100× SYPRO Orange Protein Gel Stain (Invitrogen) and 18 μl of target protein at 15 μM in HBS-EP buffer (10 mM HEPES, 150 mM NaCl, 3 mM NaEDTA, 0.005% surfactant P20, pH 7.4). The excitation and emission wavelengths for the measurement were 587 nm and 607 nm, respectively. Temperature was scanned from 20 °C to 95 °C at a rate of 1 °C min^−1. Melting temperatures were determined by fitting the 1st derivative of each melting curve to a bi-Gaussian function in OriginPro.

With “AHHGGWTTK [pWT, wild-type PI3Kα counterpart peptide]”, the “Tm (melting temperature of peptide/HLA complex)” value on HLA-A*03:02 is on record as 38.7 oC.

As to “fluorescein-labeled pMut derivative (P5 Gly substituted with a 5-carboxyfluorescein-modified lysine) (peptide)”, in test [1], the t1/2 of the peptide/HLA complex was found to be 5.5 h.

On to “IVFMGWTTK [peptide derived from transmembrane protein 87B (TM87B), position 407-415]”, for which, in test [2], the “activation of T cells by peptide (in words)” value was “failed to activate TCR4-transduced T cells”.

AHHGK(5FAM)WTTK (also: 5-carboxyfluorescein-modified Lys at P5 (replacing Gly)) [fluorescein-labeled pWT derivative (P5 Gly substituted with a 5-carboxyfluorescein-modified lysine)]: the t1/2 of the peptide/HLA complex in test [1] was found to be 0.078 h.
